In ChEMBL document CHEMBL1158014, “Calamistrins A and B, two new cytotoxic monotetrahydrofuran annonaceous acetogenins from Uvaria calamistrata” (J Nat Prod, 1999):
In brackets after ≈: the same amount, converted by molar mass.

Legend:
Type in all cases: functional, cell-based
KB = test: Cytotoxicity against human KB cells after 5 days by MTT assay; conditions: 120 h
A2780 = test: Cytotoxicity against human A2780 cells after 5 days by MTT assay; conditions: A2780, 120 h
HCT-8 = test: Cytotoxicity against human HCT8 cells after 5 days by MTT assay; conditions: HCT-8, 120 h

`CCCCCCCCCCCC[C@H](O)[C@H]1CC[C@H]([C@@H](C[C@H](O)CCCCCCCCCCCCC2=C[C@H](C)OC2=O)OC(C)=O)O1` [CALAMISTRIN B] was tested, and the IC50 (KB) was 6.1 µg/mL (≈ 9.37 µM), the IC50 (A2780) was 3.1 µg/mL (≈ 4.76 µM) and the IC50 (HCT-8) was 0.022 µg/mL (≈ 0.0338 µM).
`CCCCCCCCCCCC[C@H](O)[C@H]1CC[C@H]([C@H](O)C[C@@H](O)CCCCCCCCCCCCC2=C[C@H](C)OC2=O)O1` [CALAMISTRIN A] gave an IC50 (KB) of 2 µg/mL (≈ 3.28 µM), an IC50 (A2780) of 1.4 µg/mL (≈ 2.3 µM) and an IC50 (HCT-8) of 0.37 µg/mL (≈ 0.608 µM).
